Source: ChEMBL document CHEMBL1201862, “PubChem BioAssay data set” (2004)
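Results reflect a 48-hour exposure of cells in 96-well plates to compound at five concentrations. GI50 = concentration required for 50% inhibition of growth.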 Calls of active or inactive are those of the source. No stated cut-off is given here; in the data, active = GI50 up to about 1.1 µM and inactive = higher.

Key:
Test in all cases: NCI-60 cell line screen, 48 h
SNB-75 = system: SNB-75
SNB-78 = system: SNB-78
RPMI-8226 = system: RPMI-8226
Malme-3M = system: Malme-3M
UACC-257 = system: UACC-257
OVCAR-3 = system: OVCAR-3
TK-10 = system: TK-10
M14 = system: M14
SK-MEL-2 = system: SK-MEL-2
NCI-H460 = system: NCI-H460
SK-OV-3 = system: SK-OV-3
IGROV-1 = system: IGROV-1
RXF 393 = system: RXF 393
SK-MEL-5 = system: SK-MEL-5
MOLT-4 = system: MOLT-4
786-0 = system: 786-0
SF-295 = system: SF-295
EKVX = system: EKVX
CAKI-1 = system: CAKI-1

Measured: GI50

COc1cc2c(cc1OC)C(C#N)(Cc1ccccc1)N(C(=O)c1ccccc1)C=C2 (configuration not stated)
inactive: SNB-75 70.6 µM | SNB-78 > 100 µM | RPMI-8226 35.5 µM | Malme-3M > 100 µM | UACC-257 50.6 µM | OVCAR-3 > 100 µM | TK-10 > 100 µM | M14 > 100 µM | SK-MEL-2 > 100 µM | NCI-H460 46.3 µM | SK-OV-3 75.3 µM | IGROV-1 > 100 µM | RXF 393 24.4 µM | SK-MEL-5 26 µM | MOLT-4 32.5 µM | 786-0 > 100 µM | SF-295 > 100 µM | EKVX 39.6 µM

CS/C(=N/C(=O)c1ccccc1)SCCS/C(=N\C(=O)c1ccccc1)SC
inactive: SNB-75 33.8 µM | SNB-78 66.8 µM | RPMI-8226 > 100 µM | Malme-3M > 100 µM | UACC-257 > 100 µM | OVCAR-3 68.5 µM | TK-10 > 100 µM | M14 > 100 µM | SK-MEL-2 > 100 µM | NCI-H460 > 100 µM | IGROV-1 > 100 µM | RXF 393 73.6 µM | SK-MEL-5 > 100 µM | MOLT-4 > 100 µM | 786-0 > 100 µM | SF-295 > 100 µM | CAKI-1 > 100 µM | EKVX > 100 µM

CC(=O)NN1C(=O)C(Cc2ccccc2)c2ccccc21 (configuration not stated)
inactive: SNB-75 > 100 µM | SNB-78 > 100 µM | RPMI-8226 > 100 µM | Malme-3M > 100 µM | UACC-257 > 100 µM | OVCAR-3 > 100 µM | TK-10 > 100 µM | M14 > 100 µM | SK-MEL-2 > 100 µM | NCI-H460 > 100 µM | SK-OV-3 > 100 µM | IGROV-1 > 100 µM | SK-MEL-5 > 100 µM | MOLT-4 > 100 µM | 786-0 > 100 µM | SF-295 > 100 µM | CAKI-1 > 100 µM | EKVX > 100 µM

Nc1ccc(C(=O)NN2C(=O)C(Cl)C2c2ccccc2)cc1 (configuration not stated)
inactive: SNB-75 > 100 µM | SNB-78 > 100 µM | RPMI-8226 > 100 µM | Malme-3M > 100 µM | UACC-257 > 100 µM | OVCAR-3 > 100 µM | TK-10 > 100 µM | M14 > 100 µM | SK-MEL-2 > 100 µM | NCI-H460 > 100 µM | SK-OV-3 > 100 µM | IGROV-1 > 100 µM | SK-MEL-5 > 100 µM | MOLT-4 > 100 µM | 786-0 > 100 µM | SF-295 > 100 µM | CAKI-1 > 100 µM | EKVX > 100 µM

CC(=O)O[C@H]1CCC2[C@@H]3CCC4C(=O)c5oncc5C[C@]4(C)C3CC[C@@]21C (some centres not stated)
inactive: SNB-75 50.2 µM | SNB-78 49 µM | RPMI-8226 > 100 µM | Malme-3M > 100 µM | UACC-257 > 100 µM | OVCAR-3 > 100 µM | TK-10 > 100 µM | M14 > 100 µM | SK-MEL-2 > 100 µM | NCI-H460 > 100 µM | SK-OV-3 > 100 µM | IGROV-1 > 100 µM | RXF 393 > 100 µM | SK-MEL-5 > 100 µM | MOLT-4 > 100 µM | 786-0 > 100 µM | SF-295 39.5 µM | EKVX 22.4 µM

O=C(NCc1ccncc1)C1COc2cc(-c3cc(=O)c4ccccc4o3)ccc2O1 (configuration not stated)
inactive: SNB-75 38.1 µM | SNB-78 > 100 µM | Malme-3M > 100 µM | UACC-257 > 100 µM | OVCAR-3 > 100 µM | TK-10 > 100 µM | M14 > 100 µM | SK-MEL-2 > 100 µM | NCI-H460 > 100 µM | SK-OV-3 > 100 µM | IGROV-1 > 100 µM | RXF 393 > 100 µM | SK-MEL-5 > 100 µM | MOLT-4 > 100 µM | 786-0 > 100 µM | SF-295 > 100 µM | EKVX > 100 µM

OCCCc1cnco1
inactive: SNB-75 > 100 µM | SNB-78 > 100 µM | RPMI-8226 > 100 µM | Malme-3M > 100 µM | UACC-257 > 100 µM | OVCAR-3 > 100 µM | TK-10 > 100 µM | M14 > 100 µM | NCI-H460 > 100 µM | SK-OV-3 > 100 µM | IGROV-1 > 100 µM | RXF 393 > 100 µM | SK-MEL-5 > 100 µM | MOLT-4 > 100 µM | 786-0 > 100 µM | SF-295 > 100 µM | CAKI-1 > 100 µM | EKVX > 100 µM

C/C(C=O)=C1\C(O)C[C@]1(C)C1CC(C)(C)CC1O (some centres not stated)
inactive: SNB-78 > 100 µM | RPMI-8226 42.3 µM | Malme-3M > 100 µM | UACC-257 > 100 µM | OVCAR-3 28.8 µM | TK-10 > 100 µM | M14 47.3 µM | SK-MEL-2 > 100 µM | NCI-H460 > 100 µM | RXF 393 > 100 µM | SK-MEL-5 > 100 µM | MOLT-4 35.7 µM | 786-0 > 100 µM | SF-295 41.4 µM | CAKI-1 > 100 µM | EKVX > 100 µM

C=CCNC(=O)ON1C(=O)CCC1=O
inactive: SNB-75 > 100 µM | SNB-78 > 100 µM | RPMI-8226 > 100 µM | Malme-3M > 100 µM | UACC-257 > 100 µM | OVCAR-3 > 100 µM | TK-10 > 100 µM | M14 > 100 µM | SK-MEL-2 > 100 µM | NCI-H460 > 100 µM | SK-OV-3 > 100 µM | IGROV-1 > 100 µM | RXF 393 > 100 µM | MOLT-4 > 100 µM | 786-0 > 100 µM | SF-295 > 100 µM | EKVX > 100 µM

Cc1ccc(Sc2cc([N+](=O)[O-])cc(Sc3ccc(C)cc3)c2Sc2ccc(C)cc2)cc1
inactive: SNB-75 53.5 µM | SNB-78 > 100 µM | RPMI-8226 > 100 µM | Malme-3M > 100 µM | UACC-257 > 100 µM | OVCAR-3 > 100 µM | TK-10 > 100 µM | M14 > 100 µM | SK-MEL-2 > 100 µM | NCI-H460 > 100 µM | IGROV-1 > 100 µM | RXF 393 36 µM | SK-MEL-5 > 100 µM | MOLT-4 34.1 µM | 786-0 51.6 µM | SF-295 > 100 µM | CAKI-1 > 100 µM | EKVX > 100 µM

O=C(/C=C/c1ccccc1F)C(c1ccccc1)c1ccccc1
inactive: SNB-75 4.76 µM | SNB-78 5.93 µM | RPMI-8226 3.53 µM | Malme-3M 10.8 µM | UACC-257 4.82 µM | OVCAR-3 3.97 µM | TK-10 4.72 µM | M14 2.62 µM | SK-MEL-2 2.51 µM | SK-OV-3 2.01 µM | IGROV-1 10.8 µM | MOLT-4 1.24 µM | 786-0 2.42 µM | SF-295 2.06 µM | CAKI-1 5.36 µM | EKVX 11.2 µM
